Here are results for one molecule from ChEMBL document CHEMBL4418486, “Heterocyclic compounds for the inhibition of pask” (2015).

This data set is described as follows: Half life in Sprague-Dawley rat at 10 mg/kg, po measured after 0.083 to 24 hrs post dose by LC/MS/MS analysis. The format is ADME, organism-based. As to conditions: in vivo.

Molecules are shown by their SMILES.

Consider `CCn1ncc2cc(-c3cc(=O)n4ncc(-c5nc(C)no5)c4[nH]3)ccc21`, for which the half-life is 3.55 h.

Usually half-life stands for the time needed for the level to fall by half in the phase considered. A low value points to rapid decline.
